Measured values taken from US20220110888A1, “COMPOSITION FOR THE TREATMENT OF PSORIASIS” (Charlotte's Web, Inc., priority 2020, published 2022).

Assay: Systemic exposure to CBD after dermal application

## C=C(C)[C@@H]1CCC(C)=C[C@H]1c1c(O)cc(CCCCC)cc1O [CBD, cannabidiol]
  reach of the bloodstream / systemic circulation: does not reach the bloodstream
